In patent US20230021483A1, “[…] […] METHOD AND CLASSIFICATION OF PHARMACEUTICAL COMPONENTS BY USING TRANSCRIPTOMES” (National Institutes of Biomedical Innovation, Health and …, priority 2016, published 2023):

Legend:
[1] = tested on: adjuvant-associated biological themes in LV, SP, LN
How it was run: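 Per-mouse whole-organ transcriptomes; genes with eij/ei(c)>2.0 tested for theme enrichment via TargetMine (GO, KEGG, Reactome, others), Fisher's exact test, Holm-Bonferroni correction. Themes shared by all three mice kept at p<0.05, using the smallest p. Score per adjuvant-associated term = Σ−log(p) of matching themes.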

liver (LV) = assay: Whole organ transcriptome (GeneChip microarray) of liver 6 h after adjuvant administration: sDEGs, hierarchical clustering; assay type: in vivo, C57BL/6 mice; details: i.d. administration, liver, 6 h after adjuvant

Substance: Monophosphoryl lipid A [MPLA]
- IFN alpha, GO annotation line 1 of 5 ([1]; LV, ID): 0
- IFN alpha, GO annotation line 2 of 5 ([1]; LV, ID): 0
- IFN alpha: cellular response to interferon-alpha ([1]; LV, ID): 0
- IFN alpha: positive regulation of interferon-alpha production ([1]; LV, ID): 0
- IFN alpha: regulation of interferon-alpha production ([1]; LV, ID): 0
- IFN beta: cellular response to interferon-beta ([1]; LV, ID): 0
- IFN beta: interferon-beta production ([1]; LV, ID): 0
- IFN beta: positive regulation of interferon-beta production ([1]; LV, ID): 0
- IFN beta: regulation of interferon-beta production ([1]; LV, ID): 0
- IFN beta: response to interferon-beta ([1]; LV, ID): 0
- IFN gamma: cellular response to interferon-gamma ([1]; LV, ID): 0
- IFN gamma: interferon-gamma production ([1]; LV, ID): 0
- IFN gamma: regulation of interferon-gamma production ([1]; LV, ID): 0
- IFN gamma: response to interferon-gamma ([1]; LV, ID): 0
- NF-kappa B signaling pathway, GO annotation line 1 of 4 ([1]; LV, ID): 0
- NF-kappa B signaling pathway, GO annotation line 2 of 4 ([1]; LV, ID): 0
- NF-kappa B signaling pathway, GO annotation line 3 of 4 ([1]; LV, ID): 0
- NF-kappa B signaling pathway, GO annotation line 4 of 4 ([1]; LV, ID): 0
- TNF signaling pathway ([1]; LV, ID): 3.93
- adaptive immune response, GO annotation line 1 of 5 ([1]; LV, ID): 0
- adaptive immune response, GO annotation line 2 of 5 ([1]; LV, ID): 0
- adaptive immune response, GO annotation line 3 of 5 ([1]; LV, ID): 0
- adaptive immune response, GO annotation line 4 of 5 ([1]; LV, ID): 0
- adaptive immune response, GO annotation line 5 of 5 ([1]; LV, ID): 0
- apoptosis, GO annotation line 1 of 8 ([1]; LV, ID): 0
- apoptosis, GO annotation line 2 of 8 ([1]; LV, ID): 0
- apoptosis, GO annotation line 3 of 8 ([1]; LV, ID): 0
- apoptosis, GO annotation line 4 of 8 ([1]; LV, ID): 0
- apoptosis, GO annotation line 5 of 8 ([1]; LV, ID): 0
- apoptosis, GO annotation line 6 of 8 ([1]; LV, ID): 0
- apoptosis, GO annotation line 7 of 8 ([1]; LV, ID): 0
- apoptosis, GO annotation line 8 of 8 ([1]; LV, ID): 0
- cell death, GO annotation line 1 of 9 ([1]; LV, ID): 0
- cell death, GO annotation line 2 of 9 ([1]; LV, ID): 0
- cell death, GO annotation line 3 of 9 ([1]; LV, ID): 0
- cell death, GO annotation line 4 of 9 ([1]; LV, ID): 0
- cell death, GO annotation line 5 of 9 ([1]; LV, ID): 0
- cell death, GO annotation line 6 of 9 ([1]; LV, ID): 0
- cell death, GO annotation line 7 of 9 ([1]; LV, ID): 0
- cell death, GO annotation line 8 of 9 ([1]; LV, ID): 0
- cell death, GO annotation line 9 of 9 ([1]; LV, ID): 0
- chemokine, GO annotation line 1 of 4 ([1]; LV, ID): 0
- chemokine, GO annotation line 2 of 4 ([1]; LV, ID): 0
- chemokine, GO annotation line 3 of 4 ([1]; LV, ID): 0
- chemokine, GO annotation line 4 of 4 ([1]; LV, ID): 0
- chemotaxis, GO annotation line 1 of 11 ([1]; LV, ID): 3.38
- chemotaxis, GO annotation line 2 of 11 ([1]; LV, ID): 0
- chemotaxis, GO annotation line 3 of 11 ([1]; LV, ID): 0
- chemotaxis, GO annotation line 4 of 11 ([1]; LV, ID): 0
- chemotaxis, GO annotation line 5 of 11 ([1]; LV, ID): 0
- chemotaxis, GO annotation line 6 of 11 ([1]; LV, ID): 0
- chemotaxis, GO annotation line 7 of 11 ([1]; LV, ID): 0
- chemotaxis, GO annotation line 8 of 11 ([1]; LV, ID): 0
- chemotaxis, GO annotation line 9 of 11 ([1]; LV, ID): 0
- chemotaxis, GO annotation line 10 of 11 ([1]; LV, ID): 0
- chemotaxis, GO annotation line 11 of 11 ([1]; LV, ID): 0
- cytokine, GO annotation line 1 of 17 ([1]; LV, ID): 0
- cytokine, GO annotation line 2 of 17 ([1]; LV, ID): 0
- cytokine, GO annotation line 3 of 17 ([1]; LV, ID): 0
- cytokine, GO annotation line 4 of 17 ([1]; LV, ID): 0
- cytokine, GO annotation line 5 of 17 ([1]; LV, ID): 0
- cytokine, GO annotation line 6 of 17 ([1]; LV, ID): 0
- cytokine, GO annotation line 7 of 17 ([1]; LV, ID): 0
- cytokine, GO annotation line 8 of 17 ([1]; LV, ID): 0
- cytokine, GO annotation line 9 of 17 ([1]; LV, ID): 0
- cytokine, GO annotation line 10 of 17 ([1]; LV, ID): 0
- cytokine, GO annotation line 11 of 17 ([1]; LV, ID): 0
- cytokine, GO annotation line 12 of 17 ([1]; LV, ID): 0
- cytokine, GO annotation line 13 of 17 ([1]; LV, ID): 0
- cytokine, GO annotation line 14 of 17 ([1]; LV, ID): 0
- cytokine, GO annotation line 15 of 17 ([1]; LV, ID): 0
- cytokine, GO annotation line 16 of 17 ([1]; LV, ID): 0
- cytokine, GO annotation line 17 of 17 ([1]; LV, ID): 0
- defense response, GO annotation line 1 of 11 ([1]; LV, ID): 0
- defense response, GO annotation line 2 of 11 ([1]; LV, ID): 0
- defense response, GO annotation line 3 of 11 ([1]; LV, ID): 0
- defense response, GO annotation line 4 of 11 ([1]; LV, ID): 0
- defense response, GO annotation line 5 of 11 ([1]; LV, ID): 0
- defense response, GO annotation line 6 of 11 ([1]; LV, ID): 0
- defense response, GO annotation line 7 of 11 ([1]; LV, ID): 0
- defense response, GO annotation line 8 of 11 ([1]; LV, ID): 0
- defense response, GO annotation line 9 of 11 ([1]; LV, ID): 0
- defense response, GO annotation line 10 of 11 ([1]; LV, ID): 0
- defense response, GO annotation line 11 of 11 ([1]; LV, ID): 0
- immune response, GO annotation line 1 of 8 ([1]; LV, ID): 0
- immune response, GO annotation line 2 of 8 ([1]; LV, ID): 0
- immune response, GO annotation line 3 of 8 ([1]; LV, ID): 0
- immune response, GO annotation line 4 of 8 ([1]; LV, ID): 0
- immune response, GO annotation line 5 of 8 ([1]; LV, ID): 0
- immune response, GO annotation line 6 of 8 ([1]; LV, ID): 0
- immune response, GO annotation line 7 of 8 ([1]; LV, ID): 0
- immune response, GO annotation line 8 of 8 ([1]; LV, ID): 0
- inflammatory response, GO annotation line 1 of 5 ([1]; LV, ID): 0
- inflammatory response, GO annotation line 2 of 5 ([1]; LV, ID): 0
- inflammatory response, GO annotation line 3 of 5 ([1]; LV, ID): 0
- inflammatory response, GO annotation line 4 of 5 ([1]; LV, ID): 0
- inflammatory response, GO annotation line 5 of 5 ([1]; LV, ID): 0
- innate immune response, GO annotation line 1 of 6 ([1]; LV, ID): 0
- innate immune response, GO annotation line 2 of 6 ([1]; LV, ID): 0
- innate immune response, GO annotation line 3 of 6 ([1]; LV, ID): 0
- innate immune response, GO annotation line 4 of 6 ([1]; LV, ID): 0
- innate immune response, GO annotation line 5 of 6 ([1]; LV, ID): 0
- innate immune response, GO annotation line 6 of 6 ([1]; LV, ID): 0
- interleukin-6: interleukin-6 production ([1]; LV, ID): 0
- interleukin-6: positive regulation of interleukin-6 production ([1]; LV, ID): 0
- interleukin-6: regulation of interleukin-6 production ([1]; LV, ID): 0
- interleukin-12: interleukin-12 production ([1]; LV, ID): 0
- interleukin-12: positive regulation of interleukin-12 production ([1]; LV, ID): 0
- interleukin-12: regulation of interleukin-12 production ([1]; LV, ID): 0
- migration, GO annotation line 1 of 10 ([1]; LV, ID): 0
- migration, GO annotation line 2 of 10 ([1]; LV, ID): 0
- migration, GO annotation line 3 of 10 ([1]; LV, ID): 0
- migration, GO annotation line 4 of 10 ([1]; LV, ID): 0
- migration, GO annotation line 5 of 10 ([1]; LV, ID): 0
- migration, GO annotation line 6 of 10 ([1]; LV, ID): 0
- migration, GO annotation line 7 of 10 ([1]; LV, ID): 0
- migration, GO annotation line 8 of 10 ([1]; LV, ID): 0
- migration, GO annotation line 9 of 10 ([1]; LV, ID): 0
- migration, GO annotation line 10 of 10 ([1]; LV, ID): 0
- stress, GO annotation line 1 of 3 ([1]; LV, ID): 0
- stress, GO annotation line 2 of 3 ([1]; LV, ID): 0
- stress, GO annotation line 3 of 3 ([1]; LV, ID): 0
- wounding, GO annotation line 1 of 3 ([1]; LV, ID): 0
- wounding, GO annotation line 2 of 3 ([1]; LV, ID): 0
- wounding, GO annotation line 3 of 3 ([1]; LV, ID): 0
- systemic organ (LV and SP) responses after i.d. local administration ([1]; i.d., fold change >2): limited responses in LV and SP
- Number of gene probes with statistically significant changes (sDEGs), LV, Down (liver (LV); fold change <0.667, p<0.01, customized PA call=1): 24
- Number of gene probes with statistically significant changes (sDEGs), LV, Up (liver (LV); fold change >1.5, p<0.01, customized PA call=1): 9
